In patent US20250145594A1, “MODULATORS OF THE INTEGRATED STRESS PATHWAY” (Calico Life Sciences LLC, priority 2020, published 2025) one finds EC50 data, which are given here for 18 compounds.

SMILES strings stand for the structures.

The test system of the test is ATF4 luciferase reporter in HEK293T cells. The test is described as follows: ATF4-Luc assay (in vitro model of VWMD). It counts as cell-based, human. The following applies: Homo sapiens, HEK-293T, 7 h, HEK293T cells carrying the ATF4 luciferase reporter, 1 μg/mL tunicamycin, One Glo luminescence. Put shortly:
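Stable HEK293T line expressing firefly luciferase behind the human ATF4 5′-UTR, treated with 1 μg/mL tunicamycin plus compound for 7 hours. Luminescence read with One Glo; EC50 determined.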
(A reporter such as luciferase makes a cellular process visible.)
In general, EC50 refers to the midpoint of the concentration-response curve. For the compound `O=C(NC12CC(n3cc(O[C@H]4C[C@@H](OC(F)(F)F)C4)cn3)(C1)C2)[C@H]1C[C@@H](O)c2cc(Cl)ccc2O1` [Compound 409, (2R,4R)-6-chloro-4-hydroxy-N-[3-(4-{[cis-3-(trifluoromethoxy)cyclobutyl]oxy}-1H-pyrazol-1-yl)bicyclo[1.1.1]pentan-1-yl]-3,4-dihydro-2H-1-benzopyran-2-carboxamide], the EC50 was below 10 nM.
For `O=C(NC12CC(OCC(=O)N3CC(OC(F)(F)F)C3)(C1)C2)[C@H]1C[C@@H](O)c2cc(Cl)ccc2O1` [Compound 333, (2R,4R)-6-chloro-4-hydroxy-N-(3-{2-oxo-2-[3-(trifluoromethoxy)azetidin-1-yl]ethoxy}bicyclo[1.1.1]pentan-1-yl)-3,4-dihydro-2H-1-benzopyran-2-carboxamide] the value was 50 to 250 nM.
`O=C(COc1ccc(Cl)cc1O)NC12CC(n3cc(OCCOC(F)(F)F)cn3)(C1)C2` [Compound 616, 2-(4-chloro-2-hydroxyphenoxy)-N-(3-{4-[2-(trifluoromethoxy)ethoxy]-1H-pyrazol-1-yl}bicyclo[1.1.1]pentan-1-yl)acetamide]: the EC50 is below 10 nM.
Take `COc1ccc2nn(C34CC(NC(=O)[C@H]5C[C@@H](O)c6cc(Cl)c(F)cc6O5)(C3)C4)cc2n1` [Compound 506, (2R,4R)-6-chloro-7-fluoro-4-hydroxy-N-[3-(5-methoxy-2H-pyrazolo[4,3-b]pyridin-2-yl)bicyclo[1.1.1]pentan-1-yl]-3,4-dihydro-2H-1-benzopyran-2-carboxamide]: the EC50 was below 10 nM.
Turning to `O=C(NC12CC(n3ccc([C@H]4C[C@@H](OC(F)(F)F)C4)n3)(C1)C2)[C@H]1C[C@@H](O)c2cc(Cl)ccc2O1` [Compound 314, (2R,4R)-6-chloro-4-hydroxy-N-(3-{3-[cis-3-(trifluoromethoxy)cyclobutyl]-1H-pyrazol-1-yl}bicyclo[1.1.1]pentan-1-yl)-3,4-dihydro-2H-1-benzopyran-2-carboxamide], the EC50 is 50 to 250 nM.
For the compound `O=C(N[C@H]1CC[C@H](C(=O)N2CC(c3ccc(C(F)(F)F)cc3)C2)CC1)[C@H]1C[C@@H](O)c2cc(Cl)ccc2O1` [Compound 323, (2R,4R)-6-chloro-4-hydroxy-N-[trans-4-{3-[4-(trifluoromethyl)phenyl]azetidine-1-carbonyl}cyclohexyl]-3,4-dihydro-2H-1-benzopyran-2-carboxamide], the concentration for a half-maximal effect (EC50) was below 10 nM.
Consider `O=C(NC12CC(n3cc([C@H]4CC[C@@H](OC(F)(F)F)C4)nn3)(C1)C2)[C@H]1C[C@@H](O)c2cc(Cl)ccc2O1` (relative stereo) [Compound 540, (2R,4R)-6-chloro-4-hydroxy-N-(3-{4-[(1S*,3R*)-3-(trifluoromethoxy)cyclopentyl]-1H-1,2,3-triazol-1-yl}bicyclo[1.1.1]pentan-1-yl)-3,4-dihydro-2H-1-benzopyran-2-carboxamide], for which the EC50 lay within 10 to 50 nM.
Turning to `O=C(NC12CC(n3cc(OCCOC(F)(F)F)cn3)(C1)C2)[C@@H]1C[C@@H](O)c2cc(Cl)c(F)cc2O1` [Compound 432, (2S,4R)-6-chloro-7-fluoro-4-hydroxy-N-(3-{4-[2-(trifluoromethoxy)ethoxy]-1H-pyrazol-1-yl}bicyclo[1.1.1]pentan-1-yl)-3,4-dihydro-2H-1-benzopyran-2-carboxamide], the EC50 is below 10 nM.
Turning to `O=C(NC12CC(n3cc(-c4cnn(CC(F)(F)F)c4)cn3)(C1)C2)[C@H]1C[C@@H](O)c2cc(Cl)ccc2O1` [Compound 563, (2R,4R)-6-chloro-4-hydroxy-N-{3-[1′-(2,2,2-trifluoroethyl)-1H,1′H-[4,4′-bipyrazol]-1-yl]bicyclo[1.1.1]pentan-1-yl}-3,4-dihydro-2H-1-benzopyran-2-carboxamide], the EC50 was below 10 nM.
As for `O=C(NC12CC(n3cc([C@H]4C[C@@H](OC(F)(F)F)C4)nn3)(C1)C2)[C@H]1C[C@@H](O)c2cc(Cl)ccc2O1` [Compound 385, (2R,4R)-6-chloro-4-hydroxy-N-(3-{4-[cis-3-(trifluoromethoxy)cyclobutyl]-1H-1,2,3-triazol-1-yl}bicyclo[1.1.1]pentan-1-yl)-3,4-dihydro-2H-1-benzopyran-2-carboxamide], the concentration for a half-maximal effect (EC50) was below 10 nM.
Consider `COc1ncc(OCC(=O)NC23CC(c4ccnc(OCCCOC(F)(F)F)c4)(C2)C3)cn1` [Compound 452, 2-[(2-methoxypyrimidin-5-yl)oxy]-N-(3-{2-[3-(trifluoromethoxy)propoxy]pyridin-4-yl}bicyclo[1.1.1]pentan-1-yl)acetamide], for which the EC50 is 250 to 500 nM.
On to `C[C@@H](COC(F)(F)F)N(C)c1cnn(C23CC(NC(=O)[C@H]4C[C@@H](O)c5cc(Cl)ccc5O4)(C2)C3)c1` [Compound 445, (2R,4R)-6-chloro-4-hydroxy-N-[3-(4-{methyl[(2S)-1-(trifluoromethoxy)propan-2-yl]amino}-1H-pyrazol-1-yl)bicyclo[1.1.1]pentan-1-yl]-3,4-dihydro-2H-1-benzopyran-2-carboxamide], for which the concentration for a half-maximal effect (EC50) fell in the range of 500 to 2000 nM.
Consider `O=C(NC12CC(c3ccnc(OCCCOC(F)(F)F)c3)(C1)C2)[C@H]1C[C@@H](O)c2cc(Cl)c(F)cc2O1` [Compound 427, (2R,4R)-6-chloro-7-fluoro-4-hydroxy-N-(3-{2-[3-(trifluoromethoxy)propoxy]pyridin-4-yl}bicyclo[1.1.1]pentan-1-yl)-3,4-dihydro-2H-1-benzopyran-2-carboxamide], for which the EC50 was below 10 nM.
With `O=C(NC12CC(n3cc(N4CC(COC(F)(F)F)C4)cn3)(C1)C2)[C@H]1C[C@@H](O)c2cc(Cl)ccc2O1` [Compound 337, (2R,4R)-6-chloro-4-hydroxy-N-[3-(4-{3-[(trifluoromethoxy)methyl]azetidin-1-yl}-1H-pyrazol-1-yl)bicyclo[1.1.1]pentan-1-yl]-3,4-dihydro-2H-1-benzopyran-2-carboxamide], the EC50 is 10 to 50 nM.
`O=C(NC12CCC(n3cc(OCCCOC(F)(F)F)cn3)(C1)C2)[C@H]1C[C@@H](O)c2cc(Cl)ccc2O1` [Compound 628, (2R,4R)-6-chloro-4-hydroxy-N-(4-{4-[3-(trifluoromethoxy)propoxy]-1H-pyrazol-1-yl}bicyclo[2.1.1]hexan-1-yl)-3,4-dihydro-2H-1-benzopyran-2-carboxamide]: the EC50 is 50 to 250 nM.
`O=C(NC12CC(n3cc(C[C@H]4C[C@H](OC(F)(F)F)C4)cn3)(C1)C2)[C@H]1C[C@@H](O)c2cc(Cl)c(F)cc2O1` [Compound 530, (2R,4R)-6-chloro-7-fluoro-4-hydroxy-N-[3-(4-{[(1r,3S)-3-(trifluoromethoxy)cyclobutyl]methyl}-1H-pyrazol-1-yl)bicyclo[1.1.1]pentan-1-yl]-3,4-dihydro-2H-1-benzopyran-2-carboxamide]: the EC50 lay in the range of 10 to 50 nM.
With `O=C(NC12CC(n3cc(C[C@H]4C[C@@H](OC(F)(F)F)C4)cn3)(C1)C2)[C@H]1C[C@@H](O)c2cc(Cl)ccc2O1` [Compound 531, (2R,4R)-6-chloro-4-hydroxy-N-[3-(4-{[(1s,3R)-3-(trifluoromethoxy)cyclobutyl]methyl}-1H-pyrazol-1-yl)bicyclo[1.1.1]pentan-1-yl]-3,4-dihydro-2H-1-benzopyran-2-carboxamide], the EC50 lay within 10 to 50 nM.
`O=C(COc1ccc(Cl)c(F)c1)NC12CC(c3ccc(OCCOC(F)(F)F)nc3)(C1)C2` [Compound 456, 2-(4-chloro-3-fluorophenoxy)-N-(3-{6-[2-(trifluoromethoxy)ethoxy]pyridin-3-yl}bicyclo[1.1.1]pentan-1-yl)acetamide]: the EC50 lay within 50 to 250 nM.
